Assay results as given in patent US9006455B2 (Bristol-Myers Squibb Company, priority 2009, dated 2015).

What follows are compounds tested on HCV 1b genotype (assay: HCV Replicon assay (HCV 1b genotype)). Settings: Hepatitis C virus; HCV 1b genotype replicon; read-out: EC50.
Assay type: cell-based
Protocol: An HCV Replicon assay was utilized in the present disclosure, and was prepared, conducted and validated as described in commonly owned PCT/US2006/022197 and in O'Boyle et al., Antimicrob. Agents Chemother., 49(4):1346-1353 (April 2005). Assay methods incorporating luciferase reporters have also been used as described (Apath.com).
HCV-neo replicon cells and replicon cells containing resistance substitutions in the NS5A region were used to test the currently described family of compounds. The compounds were determined to have differing degrees of reduced inhibitory activity on cells containing mutations vs. the corresponding inhibitory potency against wild-type cells. Thus, the compounds of the present disclosure can be effective in inhibiting the function of the HCV NS5A protein and are understood to be as effective in combinations as previously described in application PCT/US2006/022197 and commonly owned WO 04/014852. It should be understood that the compounds of the present disclosure can inhibit multiple genotypes of HCV. […] In one embodiment, compounds of the present disclosure are inhibitory versus 1a, 1b, 2a, 2b, 3a, 4a, and 5a genotypes.

Compound | EC50 [nM]
COC(=O)N[C@H](C(=O)N1[C@@H](C)CC[C@H]1c1ncc(-c2ccc(-c3ccc4cc(-c5cnc([C@@H]6CC[C@H](C)N6C(=O)[C@@H](NC(=O)OC)C6CCC(F)(F)CC6)[nH]5)ccc4c3)cc2)[nH]1)C1CCC(F)(F)CC1 [Example 71, Methyl((1S)-1-(4,4-difluorocyclohexyl)-2-((2S,5S)-2-(4-(4-(6-(2-((2S,5S)-1-((2S)-2-(4,4-difluorocyclohexyl)-2-((methoxycarbonyl)amino)acetyl)-5-methyl-2-pyrrolidinyl)-1H-imidazol-4-yl)-2-naphthyl)phenyl)-1H-imidazol-2-yl)-5-methyl-1-pyrrolidinyl)-2-oxoethyl)carbamate] | 0.00211
COC(=O)N[C@H](C(=O)N1[C@@H]2C[C@@H]2C[C@H]1c1ncc(-c2ccc(-c3ccc4nc(-c5cnc([C@@H]6C[C@H]7C[C@H]7N6C(=O)[C@@H](NC(=O)OC)C(C)C)[nH]5)cnc4c3)cc2)[nH]1)C(C)C [Example 104] | 0.00201
COC(=O)N[C@H](C(=O)N1[C@@H]2C[C@@H]2C[C@H]1c1ncc(-c2cnc3cc(-c4ccc5nc([C@@H]6C[C@H]7C[C@H]7N6C(=O)[C@@H](NC(=O)OC)C6CCOCC6)[nH]c5c4)ccc3n2)[nH]1)C1CCOCC1 [Example 58, Methyl((1S)-2-((1R,3S,5R)-3-(4-(6-(2-((1R,3S,5R)-2-((2S)-2-((methoxycarbonyl)amino)-2-(tetrahydro-2H-pyran-4-yl)acetyl)-2-azabicyclo[3.1.0]hex-3-yl)-1H-benzimidazol-5-yl)-2-quinoxalinyl)-1H-imidazol-2-yl)-2-azabicyclo[3.1.0]hex-2-yl)-2-oxo-1-(tetrahydro-2H-pyran-4-yl)ethyl)carbamate] | 0.849
COC(=O)N[C@H](C(=O)N1[C@@H]2C[C@@H]2C[C@H]1c1ncc(-c2ccc3nc(-c4ccc5nc([C@@H]6C[C@H]7C[C@H]7N6C(=O)[C@@H](NC(=O)OC)C(C)C)[nH]c5c4)cnc3c2)[nH]1)C(C)C [Example 52, Methyl((1S)-1-(((1R,3S,5R)-3-(4-(2-(2-((1R,3S,5R)-2-((2S)-2-((methoxycarbonyl)amino)-3-methylbutanoyl)-2-azabicyclo[3.1.0]hex-3-yl)-1H-benzimidazol-5-yl)-6-quinoxalinyl)-1H-imidazol-2-yl)-2-azabicyclo[3.1.0]hex-2-yl)carbonyl)-2-methylpropyl)carbamate] | 0.0059
COC(=O)N[C@H](C(=O)N1[C@@H]2C[C@@H]2C[C@H]1c1nc2ccc(-c3ccc4cc(-c5ccc6cc(-c7ccc8nc([C@@H]9C[C@H]%10C[C@H]%10N9C(=O)[C@@H](NC(=O)OC)C(C)C)[nH]c8c7)ccc6c5)ccc4c3)cc2[nH]1)C(C)C [Example 46, Methyl((1S)-1-(((1R,3S,5R)-3-(5-(6′-(2-((1R,3S,5R)-2-((2S)-2-((methoxycarbonyl)amino)-3-methylbutanoyl)-2-azabicyclo[3.1.0]hex-3-yl)-1H-benzimidazol-5-yl)-2,2′-binaphthalen-6-yl)-1H-benzimidazol-2-yl)-2-azabicyclo[3.1.0]hex-2-yl)carbonyl)-2-methylpropyl)carbamate] | 170
COC(=O)N[C@H](C(=O)N1[C@@H]2C[C@@H]2C[C@H]1c1nc2ccc(-c3ccc4nc(-c5ccc6nc([C@@H]7C[C@H]8C[C@H]8N7C(=O)[C@@H](NC(=O)OC)C7CCOCC7)[nH]c6c5)cnc4c3)cc2[nH]1)C1CCOCC1 [Example 38, Dimethyl(2,6-quinoxalinediylbis(1H-benzimidazole-5,2-diyl(1R,3S,5R)-2-azabicyclo[3.1.0]hexane-3,2-diyl((1S)-2-oxo-1-(tetrahydro-2H-pyran-4-yl)-2,1-ethanediyl)))biscarbamate] | 0.0421
COC(=O)N[C@H](C(=O)N1CCC[C@H]1c1nc2ccc(-c3ccc4cc(-c5ccc6nc([C@@H]7CCCN7C(=O)[C@@H](NC(=O)OC)C(C)C)[nH]c6c5)ccc4c3)cc2[nH]1)C(C)C [Example 2, Methyl((1S)-1-(((2S)-2-(5-(6-(2-((2S)-1-((2S)-2-((methoxycarbonyl)amino)-3-methylbutanoyl)-2-pyrrolidinyl)-1H-benzimidazol-5-yl)-2-naphthyl)-1H-benzimidazol-2-yl)-1-pyrrolidinyl)carbonyl)-2-methylpropyl)carbamate] | 0.00218

Same assay, conditions: Hepatitis C virus; HCV 1b genotype replicon; read-out: Range (EC50 values against HCV 1b)

Compound | EC50 [nM]
COC(=O)N[C@H](C(=O)N1[C@@H]2C[C@@H]2C[C@H]1c1nc(Cl)c(-c2ccc3cc(-c4ccc5nc([C@@H]6C[C@H]7C[C@H]7N6C(=O)[C@@H](NC(=O)OC)C6CCOCC6)[nH]c5c4)ccc3c2)[nH]1)C1CCOCC1 [Example 50, Methyl((1S)-2-((1R,3S,5R)-3-(4-chloro-5-(6-(2-((1R,3S,5R)-2-((2S)-2-((methoxycarbonyl)amino)-2-(tetrahydro-2H-pyran-4-yl)acetyl)-2-azabicyclo[3.1.0]hex-3-yl)-1H-benzimidazol-5-yl)-2-naphthyl)-1H-imidazol-2-yl)-2-azabicyclo[3.1.0]hex-2-yl)-2-oxo-1-(tetrahydro-2H-pyran-4-yl)ethyl)carbamate] | 0.0101 to 1
COC(=O)N[C@H](C(=O)N1[C@@H]2C[C@@H]2C[C@H]1c1ncc(-c2cnc3cc(-c4ccc5nc([C@@H]6C[C@H]7C[C@H]7N6C(=O)[C@@H](NC(=O)OC)C6CCOCC6)[nH]c5c4)ccc3n2)[nH]1)C1CCOCC1 [Example 58, Methyl((1S)-2-((1R,3S,5R)-3-(4-(6-(2-((1R,3S,5R)-2-((2S)-2-((methoxycarbonyl)amino)-2-(tetrahydro-2H-pyran-4-yl)acetyl)-2-azabicyclo[3.1.0]hex-3-yl)-1H-benzimidazol-5-yl)-2-quinoxalinyl)-1H-imidazol-2-yl)-2-azabicyclo[3.1.0]hex-2-yl)-2-oxo-1-(tetrahydro-2H-pyran-4-yl)ethyl)carbamate] | 0.0101 to 1
COC(=O)N[C@H](C(=O)N1CCC[C@@H]1c1nc2nc(-c3ccc4cc(-c5cnc6[nH]c([C@H]7CCCN7C(=O)[C@@H](NC(=O)OC)C(C)C)nc6n5)ccc4c3)cnc2[nH]1)C(C)C [Example 25B, Methyl((1S)-1-(((2R)-2-(5-(6-(2-((2R)-1-((2S)-2-((methoxycarbonyl)amino)-3-methylbutanoyl)-2-pyrrolidinyl)-1H-imidazo[4,5-b]pyrazin-5-yl)-2-naphthyl)-1H-imidazo[4,5-b]pyrazin-2-yl)-1-pyrrolidinyl)carbonyl)-2-methylpropyl)carbamate] | 1.01 to 1000
O=C(OCc1ccccc1)N1CCC[C@H]1c1nc2cc(-c3ccc4cc(-c5cnc6[nH]c([C@@H]7CCCN7C(=O)OCc7ccccc7)nc6c5)ccc4c3)cnc2[nH]1 [Intermediate 114, Benzyl(2S)-2-(6-(6-(2-((2S)-1-((benzyloxy)carbonyl)-2-pyrrolidinyl)-1H-imidazo[4,5-b]pyridin-6-yl)-2-naphthyl)-3H-imidazo[4,5-b]pyridin-2-yl)-1-pyrrolidinecarboxylate] | 1.01 to 1000
COC(=O)N[C@@H](C(=O)N1CCC[C@H]1c1nc2cc(-c3ccc4ccc(-c5ccc6nc([C@@H]7CCCN7C(=O)[C@H](NC(=O)OC)c7ccccc7)[nH]c6c5)cc4c3)ccc2[nH]1)c1ccccc1 [Example 12, Dimethyl(2,7-naphthalenediylbis(1H-benzimidazole-5,2-diyl(2S)-2,1-pyrrolidinediyl((1R)-2-oxo-1-phenyl-2,1-ethanediyl)))biscarbamate] | 1.01 to 1000
COC(=O)N[C@H](C(=O)N1[C@@H]2C[C@@H]2C[C@H]1c1nc2ccc(-c3ccc4cc(-c5ccc6cc(-c7ccc8nc([C@@H]9C[C@H]%10C[C@H]%10N9C(=O)[C@@H](NC(=O)OC)C(C)C)[nH]c8c7)ccc6c5)ccc4c3)cc2[nH]1)C(C)C [Example 46, Methyl((1S)-1-(((1R,3S,5R)-3-(5-(6′-(2-((1R,3S,5R)-2-((2S)-2-((methoxycarbonyl)amino)-3-methylbutanoyl)-2-azabicyclo[3.1.0]hex-3-yl)-1H-benzimidazol-5-yl)-2,2′-binaphthalen-6-yl)-1H-benzimidazol-2-yl)-2-azabicyclo[3.1.0]hex-2-yl)carbonyl)-2-methylpropyl)carbamate] | 1.01 to 1000
COC(=O)N[C@H](C(=O)N1[C@@H]2C[C@@H]2C[C@H]1c1nc2ccc(-c3ccc4nc(-c5ccc6nc([C@@H]7C[C@H]8C[C@H]8N7C(=O)[C@@H](NC(=O)OC)C7CCOCC7)[nH]c6c5)cnc4c3)cc2[nH]1)C1CCOCC1 [Example 38, Dimethyl(2,6-quinoxalinediylbis(1H-benzimidazole-5,2-diyl(1R,3S,5R)-2-azabicyclo[3.1.0]hexane-3,2-diyl((1S)-2-oxo-1-(tetrahydro-2H-pyran-4-yl)-2,1-ethanediyl)))biscarbamate] | 0.0101 to 1
COC(=O)N[C@H](C(=O)N1[C@H](c2ncc(-c3ccc(-c4ccc5cc(-c6cnc([C@@H]7C[C@@H]8C[C@@H]8N7C(=O)[C@@H](NC(=O)OC)C(C)C)[nH]6)ccc5c4)cc3)[nH]2)C[C@@H]2C[C@@H]21)C(C)C [Example 135, Methyl((1S)-1-(((1S,3S,5S)-3-(4-(4-(6-(2-((1S,3S,5S)-2-((2S)-2-((methoxycarbonyl)amino)-3-methylbutanoyl)-2-azabicyclo[3.1.0]hex-3-yl)-1H-imidazol-4-yl)-2-naphthyl)phenyl)-1H-imidazol-2-yl)-2-azabicyclo[3.1.0]hex-2-yl)carbonyl)-2-methylpropyl)carbamate] | 0.0101 to 1
COC(=O)N[C@H](C(=O)N1CCOC[C@H]1c1nc(-c2ccc(-c3ccc4cc(-c5c[nH]c([C@@H]6COCCN6C(=O)[C@@H](NC(=O)OC)C6CCOCC6)n5)ccc4c3)cc2)c[nH]1)C1CCOCC1 [Example 116, Methyl((1S)-2-((3R)-3-(4-(4-(6-(2-((3R)-4-((2S)-2-((methoxycarbonyl)amino)-2-(tetrahydro-2H-pyran-4-yl)acetyl)-3-morpholinyl)-1H-imidazol-4-yl)-2-naphthyl)phenyl)-1H-imidazol-2-yl)-4-morpholinyl)-2-oxo-1-(tetrahydro-2H-pyran-4-yl)ethyl)carbamate] | 0.0101 to 1
O=C([C@@H](c1ccccc1)N1CCCCC1)N1CCC[C@H]1c1nc2ccc(-c3ccc4cc(-c5ccc6nc([C@@H]7CCCN7C(=O)[C@@H](c7ccccc7)N7CCCCC7)[nH]c6c5)ccc4c3)cc2[nH]1 [Example 7, 5,5′-(2,6-Naphthalenediyl)bis(2-((2S)-1-((2R)-2-phenyl-2-(1-piperidinyl)acetyl)-2-pyrrolidinyl)-1H-benzimidazole)] | 0.0101 to 1
COC(=O)N[C@H](C(=O)N1CCC[C@H]1c1ncc(-c2ccc3ccc(-c4ccc5nc([C@@H]6CCCN6C(=O)[C@@H](NC(=O)OC)C(C)C)[nH]c5c4)cc3c2)[nH]1)C(C)C [Example 17, Methyl((1S)-1-(((2S)-2-(4-(7-(2-((2S)-1-((2S)-2-((methoxycarbonyl)amino)-3-methylbutanoyl)-2-pyrrolidinyl)-1H-benzimidazol-5-yl)-2-naphthyl)-1H-imidazol-2-yl)-1-pyrrolidinyl)carbonyl)-2-methylpropyl)carbamate] | 1.01 to 1000
COC(=O)N[C@H](C(=O)N1CCC[C@H]1c1ncc(-c2ccc3cc(-c4ccc5nc([C@@H]6CCCN6C(=O)[C@@H](NC(=O)OC)C6CCOCC6)[nH]c5c4)ccc3c2)[nH]1)C1CCOCC1 [Example 28, Methyl((1S)-2-((2S)-2-(4-(6-(2-((2S)-1-((2S)-2-((methoxycarbonyl)amino)-2-(tetrahydro-2H-pyran-4-yl)acetyl)-2-pyrrolidinyl)-1H-benzimidazol-5-yl)-2-naphthyl)-1H-imidazol-2-yl)-1-pyrrolidinyl)-2-oxo-1-(tetrahydro-2H-pyran-4-yl)ethyl)carbamate] | 0.0101 to 1
